Data taken from patent publication US11266655B2, “Methods and compositions for treating urea cycle disorders” (Camp4 Therapeutics Corporation, priority 2019, dated 2022).
Values joined by “and” are separate entries in the source; they are usually repeats but may differ in a detail not shown here. Equal entries are not always repeated. Where two headings read alike, the source gives them in different places.

Legend:
ARG1 = experiment: RNA-seq of compound-treated primary human hepatocytes, ARG1 expression; format: cell-based; details: for Fold change (Log 2) vs untreated, ARG1 expression: RNA-seq (Table 7)
CPS1 = experiment: RNA-seq of compound-treated primary human hepatocytes, CPS1 expression; format: cell-based; details: for CPS1 expression, Fold change (Log 2) vs untreated / Relative CPS1 level vs Untreated (±Standard Deviation): primary human hepatocytes; for CPS1 expression, Fold change (Log 2) vs untreated: RNA-seq; for Relative CPS1 level vs Untreated (±Standard Deviation): triplicate (Table 19, FIG. 11)
NAGS = format: cell-based, human
urea cycle genes = experiment: RNA-seq of primary human hepatocytes, compounds that modulate multiple urea cycle-related genes; format: cell-based; details: primary human hepatocytes, RNA-seq; for Up-regulated Genes: urea cycle-related genes significantly increased (Table 10)
Procedure: To identify small molecules that modulate urea cycle enzymes, primary human hepatocytes were prepared as a monoculture, and at least one small molecule compound was applied to the cells.
RNA-seq was performed to determine the effects of the compounds on the expression of urea cycle enzymes in hepatocytes. Fold change was calculated by dividing the level of expression in the cell system that had been perturbed by the level of expression in an unperturbed system. Changes in expression having a p-value ≤0.05 were considered significant.
Significance was defined as an FPKM ≥1, a log 2 (fold change) ≥0.5, and a q-value of ≤0.05 for selected gene target.

OTC = experiment: RNA-seq of compound-treated primary human hepatocytes, OTC expression; format: cell-based; details: for OTC expression, Fold change (Log 2) vs untreated: primary human hepatocytes, RNA-seq
SLC25A15 = experiment: RNA-seq of compound-treated primary human hepatocytes, SLC25A15 expression; format: cell-based
ASS1 = experiment: RNA-seq of compound-treated primary human hepatocytes, ASS1 expression; format: cell-based
SLC25A13 = experiment: RNA-seq of compound-treated primary human hepatocytes, SLC25A13 expression; format: cell-based; details: for Relative SLC25A13 level vs Untreated (±Standard Deviation): primary human hepatocytes, triplicate (Table 23, FIG. 15)
[1] = 1 μM, primary human hepatocytes, triplicate (Table 17, FIG. 9)
[2] = 3 μM, primary human hepatocytes, triplicate (Table 17, FIG. 9)
[3] = 3 μM, primary human hepatocytes, triplicate (Table 24, FIG. 16A-B)
[4] = 10 μM, primary human hepatocytes, triplicate (Table 24, FIG. 16A-B)
[5] = 10 μM, primary human hepatocytes, triplicate (Table 15, FIG. 7)
[6] = 0.3 μM, primary human hepatocytes, triplicate (Table 21, FIG. 13)
[7] = 1 μM, primary human hepatocytes, triplicate (Table 21, FIG. 13)
[8] = 10 μM, primary human hepatocytes, triplicate (Table 21, FIG. 13)
[9] = Example 11, relative mRNA vs DMSO

HGF/SF: Hepatocyte Growth Factor, also known as scatter factor (SF)
Fold change (Log 2) vs untreated, ARG1 expression (ARG1; primary human hepatocytes): 1.51 Log 2 | CPS1 expression, Fold change (Log 2) vs untreated (CPS1): 2.02 Log 2 | Fold change (Log 2) vs untreated, NAGS expression (NAGS): 0.56 Log 2 | number of urea cycle genes whose expression was significantly up-regulated (urea cycle genes): four | Up-regulated Genes (urea cycle genes): NAGS, CPS1, OTC, ARG1 | OTC expression, Fold change (Log 2) vs untreated (OTC): 0.56 Log 2

COc1ccc(-c2ccc3c(N4CCOC[C@@H]4C)nc(N4CCOC[C@@H]4C)nc3n2)cc1CO [AZD8055]
Relative ARGI level vs Untreated (±Standard Deviation) (ARG1; [1]): 1.34 ± 0.24 | Relative ARGI level vs Untreated (±Standard Deviation) (ARG1; [2]): 1.42 ± 0.03 | Relative ARGI level vs Untreated (±Standard Deviation) (ARG1; 10 μM, primary human hepatocytes, triplicate (Table 17, FIG. 9)): 1.35 ± 0.08 | Relative CPS1 level vs Untreated (±Standard Deviation) (CPS1; 0.3 μM): 1.38 ± 0.27 | Relative CPS1 level vs Untreated (±Standard Deviation) (CPS1; 1 μM): 1.38 ± 0.67 | Relative CPS1 level vs Untreated (±Standard Deviation) (CPS1; 3 μM): 1.60 ± 0.07 | Relative SLC25A15 level vs Untreated (±Standard Deviation) (SLC25A15; [3]): 1.33 ± 0.06 and 1.85 ± 0.26 | Relative SLC25A15 level vs Untreated (±Standard Deviation) (SLC25A15; [4]): 1.54 ± 0.12 and 1.68 ± 0.26 | Relative ASS1 level vs Untreated (±Standard Deviation) (ASS1; [5]): 1.44 ± 0.27 | Relative NAGS level vs Untreated (±Standard Deviation) (NAGS; [6]): 1.31 ± 0.20 | Relative NAGS level vs Untreated (±Standard Deviation) (NAGS; [7]): 1.41 ± 0.28 | Relative NAGS level vs Untreated (±Standard Deviation) (NAGS; [8]): 1.93 ± 0.02 | increase in NAGS gene expression (Tables 21, 22, FIG. 13, 14) (NAGS; [9]): greatest increase | Relative SLC25A13 level vs Untreated (±Standard Deviation) (SLC25A13; 3 μM): 1.33 ± 0.06 | Relative SLC25A13 level vs Untreated (±Standard Deviation) (SLC25A13; 10 μM): 1.54 ± 0.12

FC(F)(F)c1ccc(/C=C/c2nc(COc3ccc(CCCCn4ccnn4)cc3)co2)cc1 [Mubritinib (TAK 165), Mubritinib]
Relative ARGI level vs Untreated (±Standard Deviation) (ARG1): 1.93 ± 0.05 and 1.86 ± 0.04 | increase in ARG1 gene expression (Tables 17, 18, FIG. 9, 10) (ARG1): greatest increase | increase in CPS1 gene expression (Tables 19, 20, FIG. 11, 12) (CPS1): greatest increase | Increase in SLC25A15 gene expression (qualitative) (SLC25A15): greatest increase | Relative ASS1 level vs Untreated (±Standard Deviation) (ASS1): 2.56 ± 0.11 and 2.23 ± 0.53 and 2.52 ± 0.15 and 1.66 ± 0.98 and 1.87 ± 0.24 and 2.14 ± 0.39 and 2.77 ± 0.69 | increase in ASS1 gene expression (Tables 15, 16, FIG. 7, 8) (ASS1): greatest increase | Relative SLC25A13 level vs Untreated (±Standard Deviation) (SLC25A13; 0.3 μM): 1.34 ± 0.33 | increase in OTC gene expression (Table 14, FIG. 6) (OTC): significant increase

O=C1CCc2c(Oc3ccc4c(c3)[C@@H]3[C@H](O4)[C@H]3c3nc4ccc(C(F)(F)F)cc4[nH]3)ccnc2N1 [Lifirafenib (BGB-283), Lifirafenib]
Relative SLC25A15 level vs Untreated (±Standard Deviation) (SLC25A15): 1.92 ± 0.11 and 2.00 ± 0.13 | Relative ASS1 level vs Untreated (±Standard Deviation) (ASS1): 1.55 ± 0.28 | Relative NAGS level vs Untreated (±Standard Deviation) (NAGS): 1.35 ± 0.35 and 1.44 ± 0.15 | Relative SLC25A13 level vs Untreated (±Standard Deviation) (SLC25A13; 10 μM): 1.92 ± 0.11 | increase in SLC25A13 gene expression (Table 23, FIG. 15) (SLC25A13; [9]): greatest increase

COc1ccc(-c2ccc3c(N4CCOC[C@@H]4C)nc(N4CCOC[C@@H]4C)nc3n2)cc1CO [AZD-8055]
Relative ARGI level vs Untreated (±Standard Deviation) (ARG1; 0.3 μM, primary human hepatocytes, triplicate (Table 17, FIG. 9)): 1.44 ± 0.09 | Relative ARGI level vs Untreated (±Standard Deviation) (ARG1; [1]): 1.43 ± 0.25 | Relative ARGI level vs Untreated (±Standard Deviation) (ARG1; [2]): 1.36 ± 0.07 | Relative CPS1 level vs Untreated (±Standard Deviation) (CPS1; 1 μM): 1.42 ± 0.24 | Relative SLC25A15 level vs Untreated (±Standard Deviation) (SLC25A15; [3]): 1.3 ± 0.06 | Relative SLC25A15 level vs Untreated (±Standard Deviation) (SLC25A15; [4]): 1.64 ± 0.09 | Relative ASS1 level vs Untreated (±Standard Deviation) (ASS1; [5]): 1.66 ± 0.11 | Relative NAGS level vs Untreated (±Standard Deviation) (NAGS; [8]): 1.43 ± 0.01 | Relative SLC25A13 level vs Untreated (±Standard Deviation) (SLC25A13; 3 μM): 1.35 ± 0.06 | Relative SLC25A13 level vs Untreated (±Standard Deviation) (SLC25A13; 10 μM): 1.64 ± 0.09

CCNC(=O)Nc1ccc(-c2nc(N3CCOC[C@@H]3C)c3c(n2)C(C)(C)S(=O)(=O)C3)cc1 [CZ415]
Relative ARGI level vs Untreated (±Standard Deviation) (ARG1; [2]): 1.35 ± 0.12 | Relative CPS1 level vs Untreated (±Standard Deviation) (CPS1; 1 μM): 1.32 ± 0.04 | Relative SLC25A15 level vs Untreated (±Standard Deviation) (SLC25A15): 1.61 ± 0.19 and 1.52 ± 0.17 | Relative ASS1 level vs Untreated (±Standard Deviation) (ASS1; [5]): 1.65 ± 0.11 | Relative NAGS level vs Untreated (±Standard Deviation) (NAGS): 2.00 ± 0.27 | increase in NAGS gene expression (Tables 21, 22, FIG. 13, 14) (NAGS): greatest increase | Relative SLC25A13 level vs Untreated (±Standard Deviation) (SLC25A13; 3 μM): 1.61 ± 0.19 | Relative SLC25A13 level vs Untreated (±Standard Deviation) (SLC25A13; 10 μM): 1.52 ± 0.17

COc1cccc2cc(-c3nc([C@H]4CC[C@H](C(=O)O)CC4)n4ncnc(N)c34)[nH]c12 [OSI-027]
Relative SLC25A15 level vs Untreated (±Standard Deviation) (SLC25A15; 1 μM, primary human hepatocytes, triplicate (Table 24, FIG. 16A-B)): 1.53 ± 0.01 | Relative SLC25A15 level vs Untreated (±Standard Deviation) (SLC25A15; [3]): 1.87 ± 0.46 | Relative SLC25A15 level vs Untreated (±Standard Deviation) (SLC25A15; [4]): 1.52 ± 0.04 | Relative ASS1 level vs Untreated (±Standard Deviation) (ASS1; 1 μM, primary human hepatocytes, triplicate (Table 15, FIG. 7)): 1.55 ± 0.16 | Relative ASS1 level vs Untreated (±Standard Deviation) (ASS1; 3 μM, primary human hepatocytes, triplicate (Table 15, FIG. 7)): 1.45 ± 0.10 | Relative ASS1 level vs Untreated (±Standard Deviation) (ASS1; [5]): 2.05 ± 0.00 | Relative NAGS level vs Untreated (±Standard Deviation) (NAGS; [6]): 1.46 ± 0.07 | Relative NAGS level vs Untreated (±Standard Deviation) (NAGS; [7]): 1.37 ± 0.27 | Relative NAGS level vs Untreated (±Standard Deviation) (NAGS; 3 μM, primary human hepatocytes, triplicate (Table 21, FIG. 13)): 2.51 ± 0.16 | Relative NAGS level vs Untreated (±Standard Deviation) (NAGS; [8]): 2.14 ± 0.12 | Relative SLC25A13 level vs Untreated (±Standard Deviation) (SLC25A13; 1 μM): 1.53 ± 0.01 | Relative SLC25A13 level vs Untreated (±Standard Deviation) (SLC25A13; 3 μM): 1.87 ± 0.46 | Relative SLC25A13 level vs Untreated (±Standard Deviation) (SLC25A13; 10 μM): 1.52 ± 0.04

PDGF
Fold change (Log 2) vs untreated, ARG1 expression (ARG1; primary human hepatocytes): 1.85 Log 2 | CPS1 expression, Fold change (Log 2) vs untreated (CPS1): 2.12 Log 2 | Fold change (Log 2) vs untreated, SLC25A15 expression (SLC25A15; primary human hepatocytes, RNA-seq (Table 8)): 0.71 Log 2 | number of urea cycle genes whose expression was significantly up-regulated (urea cycle genes): four | Up-regulated Genes (urea cycle genes): CPS1, OTC, ARG1, SLC25A15 | OTC expression, Fold change (Log 2) vs untreated (OTC): 0.77 Log 2

TNF-α
CPS1 expression, Fold change (Log 2) vs untreated (CPS1): 2.31 Log 2 | Fold change (Log 2) vs untreated, ASS1 expression (ASS1; primary human hepatocytes, RNA-seq (Table 4)): 0.58 Log 2 | number of urea cycle genes whose expression was significantly up-regulated (urea cycle genes): four | Up-regulated Genes (urea cycle genes): CPS1, ASS1, OTC, ARG1 | OTC expression, Fold change (Log 2) vs untreated (OTC): 0.87 Log 2

Activin
Fold change (Log 2) vs untreated, ARG1 expression (ARG1; primary human hepatocytes): 2.01 Log 2 | CPS1 expression, Fold change (Log 2) vs untreated (CPS1): 2.23 Log 2 | Fold change (Log 2) vs untreated, NAGS expression (NAGS): 0.69 Log 2 | number of urea cycle genes whose expression was significantly up-regulated (urea cycle genes): four | Up-regulated Genes (urea cycle genes): NAGS, CPS1, OTC, ARG1 | OTC expression, Fold change (Log 2) vs untreated (OTC): 0.94 Log 2

B1: Anti mullerian hormone: member of the TGF-B gene family which mediates male sexual differentiation (protein, UniProt P03971 452-560, looked up)
Muellerian-inhibiting factor: SAGATAADGPCALRELSVDLRAERSVLIPETYQANNCQGVCGWPQSDRNPRYGNHVVLLLKMQVRGAALARPPCCVPTAYAGKLLISLSEERISAHHVPNMVATECGCR
Fold change (Log 2) vs untreated, ARG1 expression (ARG1; primary human hepatocytes): 2.06 Log 2 | CPS1 expression, Fold change (Log 2) vs untreated (CPS1): 2.35 Log 2 | number of urea cycle genes whose expression was significantly up-regulated (urea cycle genes): three | Up-regulated Genes (urea cycle genes): CPS1, OTC, ARG1 | OTC expression, Fold change (Log 2) vs untreated (OTC): 0.81 Log 2
